Results from EP0852233A1, “CYCLOSPORIN PHOSPHATE DERIVATIVES AND MEDICINAL COMPOSITION” (NIPPON SHINYAKU COMPANY, LIMITED, priority 1995, dated 1997).
In brackets after ≈: the same amount, converted by molar mass.

Key:
[1] = Absorption after oral administration and release of the phosphate group (blood concentration by HPLC); assay type: in vivo; settings: SD rats, oral 30 mg/kg; for level at 0.5 h / level at 1 h / level at 2 h / level at 4 h / level at 8 h / level at 24 h: rat, blood, read-out: Blood concentration of the administered compound (unchanged)
Protocol: Each blood sample was centrifuged (10,000 rpm x 5 min.) and the supernatant was applied onto a pretreatment column (Sep-Pack C18 Vac, Waters). After the column was rinsed with distilled water and 40% methanol, elution was carried out in 10% steps from 50% methanol to 100% methanol and 50 µl of the eluate was injected into an HPLC. From the concentration value thus found, the blood concentration was calculated.

[2] = system: IL-2 production of T cells (Jurkat cells); assay: IL-2 production inhibitory activity (Jurkat cells stimulated with concanavalin A; IL-2 determined by CTLL-2 bioassay/MTT); assay type: cell-based, human; settings: 24 hours
Protocol: It is known that the immunosuppressant action of cyclosporins is based on inhibition of the IL-2 gene of T cells. Therefore, the biological activity of cyclosporins can be assayed using inhibition of the IL-2 production of T cells as an indicator. Accordingly, using Jurkat cells (a tumor cell line derived from human T cells), the biological activity of the compound of the invention was evaluated.
Jurkat cells grown to the logarithmic phase in RPMI-1640 medium (Flow Laboratories; 10% heat-inactivated FBS, 300 mg/l L-glutamine, 50 U/ml streptomycin, 50 U/ml penicillin, 25 mM Hepes, 50 µM 2-mercaptoethanol) were seeded onto a 96-well microtiter plate at a density of 8x10^5 cells/ml, 0.1 ml/well. Then, as an IL-2 production inducer, 10 µl of concanavalin A was added, followed by addition of 20 µl each of samples varying in concentration. After the final volume was adjusted to 0.2 ml/well with the medium, the plate was incubated in a CO2 incubator at 37°C for 24 hours. After completion of culture, the reaction mixture in each well was centrifuged (1000 rpm x 5 min.) and the supernatant was recovered.
Determination of IL-2 was carried out by the bioassay using CTLL-2 cells which are known as IL-2-dependent cells.
To 0.1 ml of CTLL-2 cells (40,000/ml) in logarithmic phase, 0.1 ml of an appropriate dilution of the above supernatant was added, and the cells were cultured in a CO2 incubator at 37°C for 48 hours. After completion of culture, the cell growth was determined by the MTT assay. The relation between growth of CTLL-2 cells and IL-2 concentration was previously plotted for a recombinant IL-2 and using the plots as a standard curve, the IL-2 concentration was estimated from the degree of growth of CTLL-2 cells.
The IL-2 production inhibition rate was calculated by means of the following equation (1) and the IC50 value of each sample was calculated from the inhibition rates at various concentrations. IL-2 production inhibition rate (%) = (1-(IL-2 production by cells in presence of sample)/(IL-2 production by cells in absence of sample)) x100 [formula]

[3] = physchem; settings: water
[4] = rat, in vivo

| SMILES | Sum of blood concentrations up to 24 hr, administered compound (unchanged) [1] [ng/mL] | level at 0.5 h ([1]; 0.5 hr after administration) [ng/mL] | level at 1 h ([1]; 1 hr after administration) [ng/mL] | level at 2 h ([1]; 2 hr after administration) [ng/mL] | level at 4 h ([1]; 4 hr after administration) [ng/mL] | level at 8 h ([1]; 8 hr after administration) [ng/mL] | level at 24 h ([1]; 24 hr after administration) [ng/mL] | IL-2 production inhibitory concentration (IC50 ng/ml) [2] [ng/mL] | solubility thermodynamic at 30 min [3] [µg/mL] | other results |
| --- | --- | --- | --- | --- | --- | --- | --- | --- | --- | --- |
| C/C=C/C[C@@H](C)[C@@H](O)[C@H]1C(=O)N[C@@H](CC)C(=O)N(C)CC(=O)N(C)[C@@H](CC(C)C)C(=O)N[C@@H](C(C)C)C(=O)N(C)[C@@H](CC(C)C)C(=O)N[C@@H](C)C(=O)N[C@H](COP(=O)(O)O)C(=O)N(C)[C@@H](CC(C)C)C(=O)N(C)[C@@H](CC(C)C)C(=O)N(C)[C@@H](C(C)C)C(=O)N1C [[Phosphono-D-serine^8]cyclosporin A, [phosphono-D-serine^8]cyclosporin A] | 3053 | 391 | 813 | 971 | 536 | 311 | 31 |  |  | Sum of blood concentrations up to 24 hr, Sum of (2) and (3) [1]: 13501 ng/mL; Sum of blood concentrations up to 24 hr, [D-serine^8]cyclosporin A which released phosphoric acid [1]: 10448 ng/mL; Blood concentration of [D-serine^8]cyclosporin A which released phosphoric acid ([1]; 0.5 hr after administration): 1413 ng/mL; Blood concentration, Sum of (2) and (3) (released plus unchanged compound) ([1]; 0.5 hr after administration): 1804 ng/mL; Blood concentration of [D-serine^8]cyclosporin A which released phosphoric acid ([1]; 1 hr after administration): 3115 ng/mL; Blood concentration, Sum of (2) and (3) (released plus unchanged compound) ([1]; 1 hr after administration): 3928 ng/mL; Blood concentration of [D-serine^8]cyclosporin A which released phosphoric acid ([1]; 2 hr after administration): 2516 ng/mL; Blood concentration, Sum of (2) and (3) (released plus unchanged compound) ([1]; 2 hr after administration): 3437 ng/mL; Blood concentration of [D-serine^8]cyclosporin A which released phosphoric acid ([1]; 4 hr after administration): 2391 ng/mL; Blood concentration, Sum of (2) and (3) (released plus unchanged compound) ([1]; 4 hr after administration): 2927 ng/mL; Blood concentration of [D-serine^8]cyclosporin A which released phosphoric acid ([1]; 8 hr after administration): 910 ng/mL; Blood concentration, Sum of (2) and (3) (released plus unchanged compound) ([1]; 8 hr after administration): 1221 ng/mL; Blood concentration of [D-serine^8]cyclosporin A which released phosphoric acid ([1]; 24 hr after administration): 103 ng/mL; Blood concentration, Sum of (2) and (3) (released plus unchanged compound) ([1]; 24 hr after administration): 134 ng/mL |
| C/C=C/C[C@@H](C)[C@@H](O)[C@H]1C(=O)N[C@@H]([C@@H](C)OP(=O)(O)O)C(=O)N(C)CC(=O)N(C)[C@@H](CC(C)C)C(=O)N[C@@H](C(C)C)C(=O)N(C)[C@@H](CC(C)C)C(=O)N[C@@H](C)C(=O)N[C@H](C)C(=O)N(C)[C@@H](CC(C)C)C(=O)N(C)[C@@H](CC(C)C)C(=O)N(C)[C@@H](C(C)C)C(=O)N1C [[Phosphonothreonine^2]cyclosporin A, [phosphonothreonine^2]cyclosporin A] |  |  |  |  |  |  |  | 49 |  |  |
| C/C=C/C[C@@H](C)[C@@H](O)[C@H]1C(=O)N[C@@H](CC)C(=O)N(C)CC(=O)N(C)[C@@H](CC(C)C)C(=O)N[C@@H](C(C)C)C(=O)N(C)[C@@H](CC(C)C)C(=O)N[C@@H](C)C(=O)N[C@H](CO)C(=O)N(C)[C@@H](CC(C)C)C(=O)N(C)[C@@H](CC(C)C)C(=O)N(C)[C@@H](C(C)C)C(=O)N1C [[D-serine^8]cyclosporin A, reference compound] | 8754 | 895 | 4320 | 1920 | 1020 | 533 | 69 | 6 | 35.1 (≈ 28.8 µM) |  |
| C/C=C/C[C@@H](C)[C@@H](O)[C@H]1C(=O)N[C@@H]([C@@H](C)O)C(=O)N(C)CC(=O)N(C)[C@@H](CC(C)C)C(=O)N[C@@H](C(C)C)C(=O)N(C)[C@@H](CC(C)C)C(=O)N[C@@H](C)C(=O)N[C@H](C)C(=O)N(C)[C@@H](CC(C)C)C(=O)N(C)[C@@H](CC(C)C)C(=O)N(C)[C@@H](C(C)C)C(=O)N1C [Cyclosporin C] |  |  |  |  |  |  |  | 12 | 29.7 (≈ 24.4 µM) | nephrotoxicity [4]: nephrotoxic |
